These results are taken from the Biogen ADME set (Fang et al. 2023).

≈ marks a conversion by molar mass, not a printed value.

For the series the following is noted: for aqueous solubility: pH 6.8.

`O=C(NC1CCNCC1)c1ccc2cn[nH]c2c1`: the fraction unbound, human plasma is 1; the fraction unbound, rat plasma worked out at 0.511; the intrinsic clearance, human liver microsomes is 16.1 mL/min/kg.
What is called aqueous solubility is the concentration that dissolves in the medium under given conditions. Read a low aqueous solubility as little dissolved substance. For the compound `CCN1CCN(Cc2ccc(Nc3ncc(F)c(-c4cc(F)c5nc(C)n(C(C)C)c5c4)n3)nc2)CC1.CS(=O)(=O)O`, the MDR1-MDCK efflux ratio stood at 61.4; the intrinsic clearance, human liver microsomes is 129 mL/min/kg; the intrinsic clearance, rat liver microsomes was determined as 107 mL/min/kg; the aqueous solubility worked out at 48.2 µg/mL.
Consider `O=C(CCCCCCC(=O)Nc1ccccc1)NO`, for which the intrinsic clearance, human liver microsomes was at most 4.74 mL/min/kg and the intrinsic clearance, rat liver microsomes stood at 27.4 mL/min/kg.
Regarding `Cc1ccc(OCc2nc3cc(N)ccc3[nH]2)cc1`, the intrinsic clearance, human liver microsomes is at most 4.74 mL/min/kg; the intrinsic clearance, rat liver microsomes worked out at 49.1 mL/min/kg; the aqueous solubility is 16.8 µg/mL (≈ 66.1 µM).
With `Cc1cc(Nc2cnccn2)cc(C2CCCN(CC(=O)N3CCCC3)C2)n1` (stereo not given), the MDR1-MDCK efflux ratio stood at 26.7; the fraction unbound, human plasma stood at 0.439; the fraction unbound, rat plasma was 0.429; the intrinsic clearance, human liver microsomes is 5.43 mL/min/kg. The compound also gave an intrinsic clearance, rat liver microsomes of 98.6 mL/min/kg.
Turning to `O=C(O)CNc1nc(-c2ccccc2)nc2ccccc12`, the MDR1-MDCK efflux ratio came to 0.737; the intrinsic clearance, human liver microsomes is at most 4.74 mL/min/kg; the intrinsic clearance, rat liver microsomes amounted to 29.4 mL/min/kg; the aqueous solubility came out at 25.4 µg/mL (≈ 90.8 µM).
In the case of `O=C(Nc1ccc(N2CCOCC2)nc1)N1CCc2sccc2C1`, the MDR1-MDCK efflux ratio was 1.91; the intrinsic clearance, human liver microsomes is 8.76 mL/min/kg; the intrinsic clearance, rat liver microsomes stood at 109 mL/min/kg; the aqueous solubility turned out to be 25.8 µg/mL (≈ 74.8 µM).
As for `Cc1cccc(C(=O)N(C)CCc2cnccn2)c1`, the MDR1-MDCK efflux ratio was found to be 0.8; the intrinsic clearance, human liver microsomes was determined as 13 mL/min/kg; the intrinsic clearance, rat liver microsomes turned out to be 141 mL/min/kg; the aqueous solubility came out at 30.4 µg/mL (≈ 119 µM).
The compound `COc1cc2c(cc1OC)CN(CN1C(=O)c3cccc4cccc1c34)CC2` had an intrinsic clearance, human liver microsomes of 131 mL/min/kg; an intrinsic clearance, rat liver microsomes of 504 mL/min/kg; an aqueous solubility of 53.4 µg/mL (≈ 143 µM).
Turning to `Cc1ccc2nc3c(c(C(=O)NCc4nnc5n4CCC5)c2c1)CCCC3`, the MDR1-MDCK efflux ratio was 32.9; the intrinsic clearance, human liver microsomes was at most 4.74 mL/min/kg; the intrinsic clearance, rat liver microsomes worked out at 28.8 mL/min/kg; the aqueous solubility is 57.1 µg/mL (≈ 158 µM).
For `Cc1nnc(-c2ccccc2-c2ccc(O)cc2)s1`, in that order: 1.3, 14.6 mL/min/kg, 397 mL/min/kg and 50.1 µg/mL (≈ 187 µM).
With `CC(C)C(=O)Nc1ncn(Cc2cccnc2)n1`, the MDR1-MDCK efflux ratio stood at 16.3; the intrinsic clearance, human liver microsomes is at most 4.74 mL/min/kg; the intrinsic clearance, rat liver microsomes is at most 10.7 mL/min/kg; the aqueous solubility stood at 38 µg/mL (≈ 155 µM).
Take `COCc1ccccc1CNc1ccc2nnc(-c3ccccc3)n2n1`: the MDR1-MDCK efflux ratio is 9.33; the intrinsic clearance, human liver microsomes is 101 mL/min/kg; the intrinsic clearance, rat liver microsomes is 417 mL/min/kg; the aqueous solubility is 2.8 µg/mL (≈ 8.11 µM).
As to `Cc1cccc(CNC(=O)Cn2c(=O)oc3cccnc32)c1`, the intrinsic clearance, human liver microsomes is at most 4.74 mL/min/kg and the intrinsic clearance, rat liver microsomes was at most 10.7 mL/min/kg.
For `CCc1ccccc1NC(=O)Cn1nc(C)cc1C`, the MDR1-MDCK efflux ratio was found to be 0.716; the intrinsic clearance, human liver microsomes was found to be 25.2 mL/min/kg; the intrinsic clearance, rat liver microsomes amounted to 94.9 mL/min/kg; the aqueous solubility turned out to be 44.2 µg/mL (≈ 172 µM).
As for `CN(C)C1(CNC(=O)N2CCCC(C)(C)CC2)CCOCC1`, the MDR1-MDCK efflux ratio stood at 16.5; the intrinsic clearance, human liver microsomes is 8.43 mL/min/kg; the intrinsic clearance, rat liver microsomes came out at 120 mL/min/kg; the aqueous solubility turned out to be 56.9 µg/mL (≈ 183 µM).
As to `CC1(C)CC(=O)c2c(C(F)(F)F)nn(-c3ccc(C(N)=O)c(N[C@H]4CC[C@H](OC(=O)CN)CC4)c3)c2C1`, the intrinsic clearance, human liver microsomes is 204 mL/min/kg and the intrinsic clearance, rat liver microsomes came out at 469 mL/min/kg.
Consider `CCc1ccc(S(=O)(=O)NCc2ccnc(N3CCCC3)n2)cc1`, for which the MDR1-MDCK efflux ratio is 0.891; the intrinsic clearance, human liver microsomes was 311 mL/min/kg; the intrinsic clearance, rat liver microsomes was found to be 2060 mL/min/kg; the aqueous solubility was 67.7 µg/mL (≈ 195 µM).
Compound `COc1ccc(CN(C)c2ncncc2Br)cc1O` gave an intrinsic clearance, human liver microsomes of 25.9 mL/min/kg; an intrinsic clearance, rat liver microsomes of 211 mL/min/kg; an aqueous solubility of 55.6 µg/mL (≈ 172 µM).
`Cc1oc2ccccc2c1CNc1nnc(-c2ccncc2)o1`: the MDR1-MDCK efflux ratio was found to be 1.02; the fraction unbound, human plasma is 0.0522; the fraction unbound, rat plasma was determined as 0.00672; the intrinsic clearance, human liver microsomes worked out at 33.4 mL/min/kg. This compound also showed an intrinsic clearance, rat liver microsomes of 141 mL/min/kg.
Take `COc1ccccc1C(=O)Nc1cccc(C#N)c1`: the MDR1-MDCK efflux ratio is 0.246; the intrinsic clearance, human liver microsomes was determined as 85.5 mL/min/kg; the intrinsic clearance, rat liver microsomes worked out at 80.9 mL/min/kg; the aqueous solubility is 33 µg/mL (≈ 131 µM).
Taken in the same sequence, the figures for `Cc1ccc(C(=O)N2CCN(C(=O)NCC(=O)N3CCCC3)CC2)cc1F` were 60.6, at most 4.74 mL/min/kg, 22.3 mL/min/kg and 75.6 µg/mL (≈ 201 µM).
Taken in the same sequence, the figures for `COc1cccc(NC(=O)[C@H]2CCCN(S(=O)(=O)c3ccc(C)cc3)C2)c1` were 2.68, 38.1 mL/min/kg, 2820 mL/min/kg and 10 µg/mL (≈ 25.7 µM).
`N#CCN(CN1C(=O)CC2(CCCC2)C1=O)C1CC1` yielded an aqueous solubility of 38.5 µg/mL (≈ 147 µM).
Take `Cc1cc(C(=O)N(C)c2nc3ccccc3s2)cc(O)n1`: the MDR1-MDCK efflux ratio was 4; the intrinsic clearance, human liver microsomes was at most 4.74 mL/min/kg; the intrinsic clearance, rat liver microsomes worked out at 16.1 mL/min/kg.
For `Cc1ncc(CN2CCC(Nc3ccc4nnnn4n3)C(C)C2)s1` (stereo not given), the MDR1-MDCK efflux ratio amounted to 27.5; the fraction unbound, human plasma is 0.449; the fraction unbound, rat plasma stood at 0.379; the intrinsic clearance, human liver microsomes is 16.2 mL/min/kg. Moreover, the intrinsic clearance, rat liver microsomes came to 122 mL/min/kg.
Regarding `N#Cc1ccc(N2CCc3c(ncn3C3CC3)C2)nc1`, the MDR1-MDCK efflux ratio came to 0.877; the intrinsic clearance, human liver microsomes was determined as 13.4 mL/min/kg; the intrinsic clearance, rat liver microsomes came out at 63.7 mL/min/kg; the aqueous solubility is 45.5 µg/mL (≈ 172 µM).
With `Cc1ncccc1CNc1nnc(C(C)(C)C)s1`, the MDR1-MDCK efflux ratio was 1.28; the intrinsic clearance, human liver microsomes was at most 4.74 mL/min/kg; the intrinsic clearance, rat liver microsomes stood at 19.3 mL/min/kg; the aqueous solubility amounted to 40.9 µg/mL (≈ 156 µM).
Regarding `Cc1nc2cc(-c3nccn3C)nn2c(NCCCN(C)C)c1C`, the MDR1-MDCK efflux ratio came out at 67.6; the intrinsic clearance, human liver microsomes was at most 4.74 mL/min/kg; the intrinsic clearance, rat liver microsomes came to 601 mL/min/kg.
Consider `CC(C)CC(=O)NCC(=O)N1CCCC1`, for which the MDR1-MDCK efflux ratio was determined as 1.2; the intrinsic clearance, human liver microsomes is at most 4.74 mL/min/kg; the intrinsic clearance, rat liver microsomes was at most 10.7 mL/min/kg; the aqueous solubility amounted to 61.5 µg/mL (≈ 290 µM).
As for `Cn1cnnc1NC(=O)c1cnn2c1CCCC2`, the MDR1-MDCK efflux ratio amounted to 3.95; the intrinsic clearance, human liver microsomes is at most 4.74 mL/min/kg; the intrinsic clearance, rat liver microsomes is at most 10.7 mL/min/kg.
Consider `Cc1ccc(-c2cnc(N)cn2)c2cccnc12`, for which the MDR1-MDCK efflux ratio was 0.671; the intrinsic clearance, human liver microsomes stood at 23.1 mL/min/kg; the intrinsic clearance, rat liver microsomes amounted to 75.4 mL/min/kg; the aqueous solubility turned out to be 31.8 µg/mL (≈ 135 µM).
In the case of `Cc1cnc(CS(=O)(=O)C2CCCC2)cn1`, the aqueous solubility was determined as 36.2 µg/mL (≈ 151 µM).
`CCc1cc(CN(C)c2nccc(-c3ccc(C)nc3C)n2)on1`: the MDR1-MDCK efflux ratio is 0.673; the intrinsic clearance, human liver microsomes came out at 89.4 mL/min/kg; the intrinsic clearance, rat liver microsomes came to 1690 mL/min/kg; the aqueous solubility worked out at 36.4 µg/mL (≈ 113 µM).
As to `O=C(NC1CCCCC1)C1=CCN(C(=O)C2CC2)C1`, the MDR1-MDCK efflux ratio is 2.4; the intrinsic clearance, human liver microsomes was at most 4.74 mL/min/kg; the intrinsic clearance, rat liver microsomes was 29.8 mL/min/kg.
In the case of `CN(C)c1ccnc(NC(=O)c2cnsn2)c1`, the intrinsic clearance, human liver microsomes is 163 mL/min/kg and the intrinsic clearance, rat liver microsomes was 280 mL/min/kg.
For the compound `Cc1ccc(-c2nc(CC(=O)NCCC(C)C)cs2)cc1`, the MDR1-MDCK efflux ratio stood at 0.529; the intrinsic clearance, human liver microsomes was 464 mL/min/kg; the intrinsic clearance, rat liver microsomes worked out at 6110 mL/min/kg; the aqueous solubility was found to be 8.17 µg/mL (≈ 27 µM).
Taken in the same sequence, the figures for `CCc1cnc(CNC(=O)N2CCC(n3cncn3)CC2)s1` were 24.7, at most 4.74 mL/min/kg, at most 10.7 mL/min/kg and 49.4 µg/mL (≈ 154 µM).
The compound `c1ccc(-c2nn3c(-c4ccco4)nnc3c3ccccc23)cc1` registered an aqueous solubility of 0.17 µg/mL (≈ 0.544 µM).
For the compound `CCS(=O)(=O)N1CCC(C(=O)N(C)C2CCCCCCC2)CC1`, the MDR1-MDCK efflux ratio turned out to be 1.57; the intrinsic clearance, human liver microsomes was found to be 133 mL/min/kg; the intrinsic clearance, rat liver microsomes was 857 mL/min/kg; the aqueous solubility was determined as 51.4 µg/mL (≈ 149 µM).
For `CN(C)c1cncc(-c2ccc(S(=O)(=O)N(C)C)cc2)n1`, the MDR1-MDCK efflux ratio stood at 0.61; the intrinsic clearance, human liver microsomes came to 80.8 mL/min/kg; the intrinsic clearance, rat liver microsomes was determined as 2430 mL/min/kg.
In turn, `CN(c1ccccc1)S(=O)(=O)c1csc(C(=O)Nc2ccc(C(=O)O)cc2)c1` gave an aqueous solubility of 80.3 µg/mL (≈ 193 µM).
For the compound `Cn1c(CNC(=O)Cc2ccccc2)nc2ccccc21`, the MDR1-MDCK efflux ratio was found to be 2.25; the intrinsic clearance, human liver microsomes amounted to 7.54 mL/min/kg; the intrinsic clearance, rat liver microsomes was 89.6 mL/min/kg; the aqueous solubility is 44.8 µg/mL (≈ 160 µM).
In the case of `Cc1csc(-c2nnc(Nc3ccc(Oc4ncccc4-c4ccnc(N)n4)cc3)c3ccccc23)c1`, the MDR1-MDCK efflux ratio came to 0.918 and the aqueous solubility was 0.76 µg/mL (≈ 1.51 µM).
For `CC(C(=O)Nc1ccccc1)N1CCCC(c2nc3ccccc3o2)C1` (stereo not given), the MDR1-MDCK efflux ratio stood at 0.831; the intrinsic clearance, rat liver microsomes worked out at 3000 mL/min/kg; the aqueous solubility was determined as 26.9 µg/mL (≈ 76.8 µM).
As to `O=C(Cc1ccc(Cl)c(Cl)c1)N1CC(n2ccnn2)C1`, the MDR1-MDCK efflux ratio came out at 2.09; the intrinsic clearance, human liver microsomes is at most 4.74 mL/min/kg; the intrinsic clearance, rat liver microsomes is 51.8 mL/min/kg; the aqueous solubility came out at 31 µg/mL (≈ 99.7 µM).
